Data taken from PubChem BioAssay (NCI).
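All cell lines were grown in 96-well plates and treated with compound for 48 hours. At the TGI there is no net growth.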

Assays:
Test in all cases: inhibition of tumour cell growth, NCI panel, 48 h
[1] = test system: MDA-MB-435
[2] = test system: UO-31 renal
[3] = test system: TK-10 renal
[4] = test system: SK-MEL-2 melanoma
[5] = test system: UACC-62 melanoma
[6] = test system: HOP-62 NSCLC
[7] = test system: COLO 205 colon
[8] = test system: SF-268 CNS
[9] = test system: HT29 colon
[10] = test system: IGROV1 ovarian
[11] = test system: U251 CNS
[12] = test system: HCT-15 colon
[13] = test system: SK-MEL-5 melanoma
[14] = test system: SNB-19 CNS
[15] = test system: ACHN renal
[16] = test system: SNB-75 CNS
[17] = test system: HL-60(TB) leukemia
[18] = test system: 786-0 renal
[19] = test system: HS 578T breast
[20] = test system: LOX IMVI melanoma
[21] = test system: BT-549 breast
[22] = test system: NCI/ADR-RES ovarian
[23] = test system: MALME-3M melanoma
[24] = test system: M14 melanoma
[25] = test system: EKVX NSCLC
[26] = test system: OVCAR-5 ovarian
[27] = test system: OVCAR-4 ovarian
[28] = test system: SF-295 CNS
[29] = test system: K-562 leukemia
[30] = test system: A498 renal
[31] = test system: HCC-2998 colon
[32] = test system: PC-3 prostate
[33] = test system: MCF7 breast
[34] = test system: SK-MEL-28 melanoma
[35] = test system: SK-OV-3 ovarian
[36] = test system: A549 NSCLC
[37] = test system: SF-539 CNS
[38] = test system: SW-620 colon
[39] = test system: KM12 colon
[40] = test system: MDA-N
[41] = test system: MOLT-4 leukemia
[42] = test system: T-47D breast
[43] = test system: MDA-MB-231 breast
[44] = test system: OVCAR-8 ovarian
[45] = test system: SN12C renal
[46] = test system: OVCAR-3 ovarian
[47] = test system: RXF 393 renal
[48] = test system: NCI-H522 lung
[49] = test system: NCI-H460 lung
[50] = test system: CAKI-1 renal
[51] = test system: DU-145 prostate
[52] = test system: CCRF-CEM leukemia
[53] = test system: HCT-116 colon
[54] = test system: UACC-257 melanoma
[55] = test system: NCI-H23 lung
[56] = test system: RPMI-8226 leukemia
[57] = test system: NCI-H226 lung

Compound CCOC(=O)C1(C/C=C/CBr)Cc2ccccc2C1=O (configuration not stated) has a TGI [1] of 3.19 µM, a TGI [2] of 4.83 µM and a TGI [3] of 9.15 µM. It also gave a TGI [4] of 6.13 µM, a TGI [5] of 5.44 µM and a TGI [6] of 14.8 µM. The TGI [7] was 11.7 µM, the TGI [8] was 10 µM and the TGI [9] was 11.8 µM. The TGI [10] was 10.3 µM, the TGI [11] was 14.8 µM and the TGI [12] was 5.73 µM. The TGI [13] was 7.66 µM, the TGI [14] was 37.2 µM and the TGI [15] was 7.19 µM. The TGI [16] was 31.9 µM, the TGI [17] was > 100 µM and the TGI [18] was 25.8 µM. The TGI [19] was 24.4 µM, the TGI [20] was 3.23 µM and the TGI [21] was 8.86 µM. For the same compound, the TGI [22] was 5.02 µM, the TGI [23] was 7.43 µM and the TGI [24] was 11.6 µM. The TGI [25] was 28.7 µM, the TGI [26] was 20.1 µM and the TGI [27] was 6.02 µM. For the same compound, the TGI [28] was 22.1 µM, the TGI [29] was 4.84 µM and the TGI [30] was 32.6 µM. For the same compound, the TGI [31] was 21.3 µM, the TGI [32] was 19.2 µM and the TGI [33] was 8.73 µM. The TGI [34] was 20.8 µM, the TGI [35] was 21.5 µM and the TGI [36] was > 35.7 µM. For the same compound, the TGI [37] was 3.39 µM, the TGI [38] was 7.06 µM and the TGI [39] was 10.8 µM. The TGI [40] was 6.37 µM, the TGI [41] was 8.31 µM and the TGI [42] was 12.2 µM. For the same compound, the TGI [43] was 28.9 µM, the TGI [44] was 7.34 µM and the TGI [45] was 6.41 µM. The TGI [46] was 4.54 µM, the TGI [47] was 6.32 µM and the TGI [48] was 3.11 µM. For the same compound, the TGI [49] was 4.21 µM, the TGI [50] was 7.27 µM and the TGI [51] was 28.3 µM. The TGI [52] was 5.36 µM, the TGI [53] was 15.8 µM and the TGI [54] was 22.6 µM. The TGI [55] was 4.47 µM and the TGI [56] was 4.88 µM.

O=[N+]([O-])c1ccc2c(c1)c(OCc1ccccc1)nn2Cc1ccccc1 was tested, and the TGI [1] was > 100 µM, the TGI [2] was > 100 µM and the TGI [3] was > 100 µM. For the same compound, the TGI [4] was > 100 µM, the TGI [5] was > 100 µM and the TGI [6] was > 100 µM. The TGI [8] was > 100 µM, the TGI [9] was > 100 µM and the TGI [10] was > 100 µM. For the same compound, the TGI [12] was > 100 µM, the TGI [13] was > 100 µM and the TGI [14] was > 100 µM. The TGI [15] was > 100 µM, the TGI [17] was > 100 µM and the TGI [18] was > 100 µM. For the same compound, the TGI [19] was > 100 µM, the TGI [20] was > 100 µM and the TGI [21] was > 100 µM. The TGI [22] was > 100 µM, the TGI [23] was > 100 µM and the TGI [24] was > 100 µM. For the same compound, the TGI [26] was > 100 µM, the TGI [28] was > 100 µM and the TGI [29] was > 100 µM. For the same compound, the TGI [30] was > 100 µM, the TGI [31] was > 100 µM and the TGI [32] was > 100 µM. The TGI [33] was > 100 µM, the TGI [34] was > 100 µM and the TGI [35] was > 100 µM. For the same compound, the TGI [36] was > 100 µM, the TGI [37] was > 100 µM and the TGI [57] was > 100 µM. For the same compound, the TGI [38] was > 100 µM, the TGI [39] was > 100 µM and the TGI [40] was > 100 µM. The TGI [41] was > 100 µM, the TGI [42] was > 100 µM and the TGI [43] was > 100 µM. For the same compound, the TGI [44] was > 100 µM, the TGI [45] was > 100 µM and the TGI [46] was > 100 µM. The TGI [47] was > 100 µM, the TGI [48] was > 100 µM and the TGI [49] was > 100 µM. The TGI [50] was > 100 µM, the TGI [51] was > 100 µM and the TGI [52] was > 100 µM. The TGI [54] was > 100 µM, the TGI [55] was > 100 µM and the TGI [56] was > 100 µM.
